{"source": "patent US20200341000A1", "about": "“METHOD OF SCREENING COMPOUNDS FOR TREATING CNS DISORDERS” (SAGE THERAPEUTICS, INC., priority 2017, published 2020)", "key": {"[1]": {"system": "GABA receptor trafficking", "assay": "GABA receptor trafficking measured by GABAergic current density (FIG. 14)", "format": "cell-based", "conditions": "measured by the GABAergic current density", "source_text": "As shown in above examples, not all neurosteroids can modulate GABA receptor trafficking."}, "[2]": {"system": "tonic current in dentate gyms granule cells (DGGCs)", "conditions": "Abramian et al., 2010, 2014; cited from earlier work"}, "α1β2γ2 GABAA receptors": {"target": "T1, α1β2γ2 GABAA receptors (Homo sapiens, UniProt P14867+P18507+P47870)", "T1 construct": "expressed in transfected cells", "T1 sequence (P14867 28-456)": "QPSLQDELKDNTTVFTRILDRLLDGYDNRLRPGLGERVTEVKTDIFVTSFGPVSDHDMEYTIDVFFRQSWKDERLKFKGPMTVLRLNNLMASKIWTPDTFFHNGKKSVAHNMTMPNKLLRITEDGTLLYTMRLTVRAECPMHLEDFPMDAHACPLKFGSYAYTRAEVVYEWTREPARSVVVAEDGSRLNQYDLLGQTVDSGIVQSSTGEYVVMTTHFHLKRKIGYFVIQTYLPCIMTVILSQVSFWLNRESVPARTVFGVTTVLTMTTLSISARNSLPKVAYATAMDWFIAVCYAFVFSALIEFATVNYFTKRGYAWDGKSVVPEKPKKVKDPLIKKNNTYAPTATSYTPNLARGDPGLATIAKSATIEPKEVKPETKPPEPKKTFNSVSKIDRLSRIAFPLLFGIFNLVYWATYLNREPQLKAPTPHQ", "T1 sequence (P47870 25-512 limits assumed)": "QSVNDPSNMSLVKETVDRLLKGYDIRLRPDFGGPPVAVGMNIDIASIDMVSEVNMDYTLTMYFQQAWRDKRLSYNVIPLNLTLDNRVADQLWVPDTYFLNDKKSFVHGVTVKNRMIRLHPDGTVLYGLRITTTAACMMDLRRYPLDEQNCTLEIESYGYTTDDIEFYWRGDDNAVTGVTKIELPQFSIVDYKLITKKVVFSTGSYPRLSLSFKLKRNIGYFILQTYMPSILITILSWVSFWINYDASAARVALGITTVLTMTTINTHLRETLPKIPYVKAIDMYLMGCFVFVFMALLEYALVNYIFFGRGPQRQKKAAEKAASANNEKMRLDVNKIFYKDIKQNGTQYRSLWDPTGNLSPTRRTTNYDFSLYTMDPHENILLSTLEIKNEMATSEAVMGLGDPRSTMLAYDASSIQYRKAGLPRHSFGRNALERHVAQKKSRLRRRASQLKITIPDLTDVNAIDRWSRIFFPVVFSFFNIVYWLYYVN", "T1 sequence (P18507 40-475)": "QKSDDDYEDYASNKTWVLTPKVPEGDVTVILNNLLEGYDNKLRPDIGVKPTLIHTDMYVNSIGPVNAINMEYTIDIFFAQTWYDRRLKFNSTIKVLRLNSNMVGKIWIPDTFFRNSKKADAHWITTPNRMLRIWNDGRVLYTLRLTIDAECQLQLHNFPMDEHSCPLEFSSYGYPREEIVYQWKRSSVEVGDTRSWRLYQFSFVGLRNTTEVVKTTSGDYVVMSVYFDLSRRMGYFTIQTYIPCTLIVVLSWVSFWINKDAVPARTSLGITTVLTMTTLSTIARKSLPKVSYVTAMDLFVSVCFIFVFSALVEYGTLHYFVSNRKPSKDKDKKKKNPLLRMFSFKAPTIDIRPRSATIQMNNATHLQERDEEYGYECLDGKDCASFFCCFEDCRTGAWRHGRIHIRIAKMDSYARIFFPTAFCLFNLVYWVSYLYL", "assay": "Whole-cell patch clamp, potentiation of GABA EC20 currents at recombinant synaptic-type receptors (LTK cells)", "format": "cell-based", "conditions": "LTK, relative percentage potentiation of GABA EC20 peak current; n = 3; read-out: Emax ± S.E.M., α1β2γ2", "method": "(§1) Cellular electrophysiology was used to measure the pharmacological properties of ALLO, ganaxolone and SGE-516 in heterologous cell systems. Compounds were tested for their ability to affect GABA mediated currents at a submaximal agonist dose (GABA EC20=2 μM).\n(§2) LTK cells were stably transfected with the α1β2γ2 subunits of the GABA receptor and CHO cells are transiently transfected with the α4β3γ subunits via the Lipofecatamine method. Cells were passaged at a confluence of about 50-80% and then seeded onto 35 mm sterile culture dishes containing 2 ml culture complete medium without antibiotics or antimycotics. Cells were cultivated at a density that enabled the recording of single cells without visible connections to other cells.\n(§3) Whole-cell currents were measured with HEKA EPC-10 amplifiers using PatchMaster software. Bath solution for all experiments contained (in mM): NaCl 137, KCl 4, CaCl2 1.8, MgCl2 1, HEPES 10, D-Glucose 10, pH 7.4 with NaOH. Intracellular (pipette) solution contained (in mM): KCl 130, MgCl2 1, Mg-ATP 5, HEPES 10, EGTA 5, pH 7.2 with KOH. During experiments, cells and solutions were maintained at room temperature (19° C.-30° C.). For manual patchclamp recordings, cell culture dishes were placed on the dish holder of the microscope and continuously perfused (1 ml/min) with bath solution. After formation of a Gigaohm seal between the patch electrode and the cell (pipette resistance range: 2.5 MΩ-6.0MΩ; seal resistance range: >1 GΩ) the cell membrane across the pipette tip was ruptured to assure electrical access to the cell interior (whole-cell patch configuration).\n(§4) Cells were voltage-clamped at a holding potential of −80 mV. GABAA receptors were activated by 2 μM GABA and compounds were sequentially applied at increasing concentrations for 30 s prior to a 2 s application of GABA. GABA and compounds were applied to cells via the Dynaflow perfusion system (Cellectricon, Sweden). Test compounds were dissolved in DMSO to form 10 mM stock solution and serially diluted to 0.01, 0.1, 1, and 10 μM in bath solution. […] All concentrations of test compound were tested on each cell. The relative percentage potentiation was defined as the peak amplitude in response to GABA EC20 in the presence of test compound divided by the peak amplitude in response to GABA EC20 alone, multiplied by 100.\n(§5) ALLO and ganaxolone are known PAMs of both synaptic and extrasynaptic GABAAR-mediated currents. […] The α1β2γ2 or α4β3δ subunit combinations were chosen as representatives of typical synaptic and extrasynaptic GABAA receptors respectively."}, "α4β3δ GABAA receptors": {"target": "T2, α4β3δ GABAA receptors (Homo sapiens, UniProt O14764+P28472+P48169)", "T2 construct": "expressed in transfected cells; host or cells: CHO cells (transient transfection, Lipofectamine)", "T2 sequence (P48169 36-554)": "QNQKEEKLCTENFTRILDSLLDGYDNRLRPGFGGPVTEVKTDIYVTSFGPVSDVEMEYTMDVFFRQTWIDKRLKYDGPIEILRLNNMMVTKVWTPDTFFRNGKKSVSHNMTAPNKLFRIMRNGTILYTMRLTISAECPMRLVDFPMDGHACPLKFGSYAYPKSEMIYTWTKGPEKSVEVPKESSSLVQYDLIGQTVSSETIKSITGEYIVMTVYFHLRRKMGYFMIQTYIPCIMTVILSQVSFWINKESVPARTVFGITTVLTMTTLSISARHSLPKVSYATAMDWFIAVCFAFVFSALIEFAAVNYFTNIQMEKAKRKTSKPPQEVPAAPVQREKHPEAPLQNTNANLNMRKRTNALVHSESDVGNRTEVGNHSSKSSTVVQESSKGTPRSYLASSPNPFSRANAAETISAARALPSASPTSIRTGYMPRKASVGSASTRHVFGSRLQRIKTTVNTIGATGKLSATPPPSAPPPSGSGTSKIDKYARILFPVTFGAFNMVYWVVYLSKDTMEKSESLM", "T2 sequence (P28472 26-473)": "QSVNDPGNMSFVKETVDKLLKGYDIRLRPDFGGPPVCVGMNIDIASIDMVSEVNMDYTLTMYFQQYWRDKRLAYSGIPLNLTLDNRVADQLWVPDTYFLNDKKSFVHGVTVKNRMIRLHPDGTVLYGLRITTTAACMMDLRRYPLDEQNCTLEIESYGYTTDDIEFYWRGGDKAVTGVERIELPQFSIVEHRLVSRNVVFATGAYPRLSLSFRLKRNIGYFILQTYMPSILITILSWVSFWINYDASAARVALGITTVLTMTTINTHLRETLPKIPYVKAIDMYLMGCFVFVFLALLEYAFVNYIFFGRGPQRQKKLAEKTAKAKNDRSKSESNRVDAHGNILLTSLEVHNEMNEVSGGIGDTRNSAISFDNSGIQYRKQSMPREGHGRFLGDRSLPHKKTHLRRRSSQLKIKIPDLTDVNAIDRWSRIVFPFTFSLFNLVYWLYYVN", "T2 sequence (O14764 25-452)": "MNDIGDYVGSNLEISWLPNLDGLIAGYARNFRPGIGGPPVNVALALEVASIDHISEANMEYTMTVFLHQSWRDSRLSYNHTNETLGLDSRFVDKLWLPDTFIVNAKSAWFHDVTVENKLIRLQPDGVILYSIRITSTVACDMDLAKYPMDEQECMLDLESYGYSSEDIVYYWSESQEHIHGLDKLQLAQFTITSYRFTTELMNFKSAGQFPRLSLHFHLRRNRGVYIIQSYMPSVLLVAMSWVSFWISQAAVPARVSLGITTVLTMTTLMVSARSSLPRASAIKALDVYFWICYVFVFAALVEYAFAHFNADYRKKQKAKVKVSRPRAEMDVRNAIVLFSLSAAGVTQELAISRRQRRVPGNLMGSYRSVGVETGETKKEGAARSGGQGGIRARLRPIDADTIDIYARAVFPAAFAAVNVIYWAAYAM", "assay": "Whole-cell patch clamp, potentiation of GABA EC20 currents at recombinant extrasynaptic-type receptors (CHO cells)", "format": "cell-based", "conditions": "data not shown", "method": "as §1, §2, §3, §4, §5"}}, "data": [{"smiles": "C[C@@]1(O)CC[C@H]2[C@H](CC[C@@H]3[C@@H]2CC[C@]2(C)[C@@H](C(=O)Cn4cc(C#N)cn4)CC[C@@H]32)C1", "note": "[SAGE-217]", "values": [{"measurement": "modulation of GABA receptor trafficking", "setting": "[1]", "result": "modulated GABA receptor trafficking"}]}, {"smiles": "C[C@]12CC[C@@H](O)C[C@H]1CC[C@@H]1[C@@H]2CC[C@]2(C)[C@@H](C(=O)CO)CC[C@@H]12", "note": "[THDOC, Tetrahydrodeoxy- corticosterone]", "values": [{"measurement": "sustained effects on GABAergic tonic current", "setting": "[2]", "result": "long lasting increase"}]}, {"smiles": "CN1C(=O)CN=C(c2ccccc2)c2cc(Cl)ccc21", "note": "[diazepam]", "values": [{"measurement": "Emax", "setting": "α1β2γ2 GABAA receptors", "result": 184, "unit": "%"}, {"measurement": "effect on GABA evoked currents in α4β3δ receptors", "setting": "α4β3δ GABAA receptors", "result": "did not alter"}]}]}
